The values below are quoted from earlier work in US6696084B2 (RTP Pharma Inc., priority 2000, dated 2004).

The conditions of series [1]: oral administration with or without food.

Consider `COCc1c(C(C)C)nc(C(C)C)c(/C=C/[C@@H](O)C[C@@H](O)CC(=O)O)c1-c1ccc(F)cc1` [Cerivastatin], for which the solubility in acetone result is “very slightly soluble”, the solubility in ethanol entry is “soluble”, the solubility in methanol entry is recorded as “soluble” and the solubility in water result was “soluble”. Also, the “food effect on absorption / uptake” value in series [1] is on record as “not sensitive to a food effect”.

In the case of `CC(C)n1c(/C=C/C(O)CC(O)CC(=O)O)c(-c2ccc(F)cc2)c2ccccc21` (stereo not drawn) [Fluvastatin], the solubility in ethanol result is listed as “soluble”, the solubility in methanol result was “soluble” and the solubility in water result was “soluble”. Further, in series [1], the “food effect on absorption / uptake” value is on record as “reduces the rate but not the extent of absorption”.

On to `CC[C@H](C)C(=O)O[C@H]1C[C@@H](C)C=C2C=C[C@H](C)[C@H](CC[C@@H]3C[C@@H](O)CC(=O)O3)[C@H]21` [Lovastatin], for which the solubility in acetonitrile result is “sparingly soluble”, the solubility in ethanol entry is reported as “sparingly soluble”, the solubility in methanol result is recorded as “sparingly soluble” and the solubility in water entry is on record as “insoluble”.

For `CC[C@H](C)C(=O)O[C@H]1C[C@H](O)C=C2C=C[C@H](C)[C@H](CC[C@@H](O)C[C@@H](O)CC(=O)O)[C@H]21` [Pravastatin], the solubility in acetone entry was “practically insoluble” and the solubility in acetonitrile entry was “practically insoluble”. Besides, the solubility in chloroform result (chloroform) was “practically insoluble”. In addition, the solubility in ether entry (ether) was “practically insoluble”. Besides, the solubility in isopropanol entry (isopropanol) was “slightly soluble”.
